Experimental findings from patent US20260209214A1, “LSD1 MODULATORS” (RECURSION PHARMACEUTICALS, INC., priority 2022, published 2026) are described below.

This experiment deals with Recombinant human LSD1 (Homo sapiens, UniProt O60341). In words: LSD1 inhibition assay (HTRF LSD1 Histone H3K4 mono-demethylation assay, me1->me0). The conditions noted are these: 20 nM recombinant human LSD1, 95 nM H3K4(me1) biotinylated peptide, 15 min preincubation, 60 min at 25° C., read-out: LSD1 inhibition IC50 (nM range). It counts as biochemical. How it is done:
LSD1 biochemical activity was measured using the HTRF® LSD1 Histone H3K4 mono-demethylation assay (me1->me0). Briefly, the enzymatic buffer was prepared by addition of 50 mM Tris-HCl (Sigma cat #T2663-IL), 50 mM NaCl (ThermoFisher cat #AM9759) and 0.01% Tween 20 (ThermoFisher cat #J20605.AP) in distilled water (final pH 8.5). This buffer was supplemented with 10 μM FAD (Fisher Scientific cat #11411838) and 1 mM DTT (Sigma cat #D0632). For the assay, H3K4(me1) biotinylated peptide substrate (Anaspec, cat #64355) was added to provide a final assay concentration of 95 nM. The streptavidin-XL665 (Cisbio cat #610SAXLA) and H3K4 me0-Eu(K) antibody-cryptate (Cisbio, cat #61 KAOKAD) detection reagents were mixed according to the manufacturer's instructions. Test compounds were diluted in DMSO in a series of 10 semi-log step doses; 10 nL of each compound dose were dispensed in 384 well plates. Recombinant human LSD1 was diluted into enzymatic buffer to provide a final assay concentration of 20 nM and added to the tested compounds for 15 minutes. The reaction was started by addition of the substrate and incubated at 25° C. for 60 minutes. The detection reagents were added, and the plate was incubated in the dark for 90 minutes. Fluorescence was measured on an Envision 2103 plate reader with optical setup for […] in the HTRF mode. The ratio of acceptor and donor emission signals was calculated for each well. Percent inhibition values were calculated from the HTRF ratios at different doses and fitted to a 4-parameter logistic curve to determine IC50 values. […]

For `N#Cc1ccc(-c2cccc(CN3[C@@H]4CC[C@H]3[C@@H](N)C4)c2-c2ccsc2)cc1F` (racemic) [Example 244, 3'-{[(1S,2S,4R)-2-amino-7-azabicyclo[2.2.1]heptan-7-yl]methyl}-3-fluoro-2'-(thiophen-3-yl)-[1,1'-biphenyl]-4-carbonitrile], the IC50 (usually the midpoint of a concentration-inhibition curve) was in the range of 25 to 100 nM.

Regarding `N#Cc1ccc(-c2cccc(CN3[C@@H]4CC[C@H]3[C@@H](N)C4)c2OCC2CC2)cc1F` (racemic) [Example 245, 3'-{[(1S,2S,4R)-2-amino-7-azabicyclo[2.2.1]heptan-7-yl]methyl}-2'-(cyclopropylmethoxy)-3-fluoro-[1,1'-biphenyl]-4-carbonitrile], the IC50 fell in the range of 25 to 100 nM.

Take `N#Cc1ccc(-c2cc(CN3[C@@H]4CC[C@H]3[C@@H](N)C4)ccc2CC2COC2)cc1F` (racemic) [Example 246, 5'-{[(1S,2S,4R)-2-amino-7-azabicyclo[2.2.1]heptan-7-yl]methyl}-3-fluoro-2'-[(oxetan-3-yl)methyl]-[1,1'-biphenyl]-4-carbonitrile]: the IC50 was in the range of 100 to 1000 nM.

Take `CC1CC1c1c(CN2[C@@H]3CC[C@H]2[C@@H](N)C3)cccc1-c1ccc(C#N)c(F)c1` (mixture of isomers) [Example 247, 3'-{[(1S,2S,4R)-2-amino-7-azabicyclo[2.2.1]heptan-7-yl]methyl}-3-fluoro-2'-(2-methylcyclopropyl)-[1,1'-biphenyl]-4-carbonitrile]: the IC50 was 25 to 100 nM.

Regarding `N#Cc1ccc(-c2cccc(CN3[C@@H]4CC[C@H]3[C@@H](N)C4)c2C2=CCOCC2)cc1F` (racemic) [Example 249, 3'-{[(1S,2S,4R)-2-amino-7-azabicyclo[2.2.1]heptan-7-yl]methyl}-2'-(3,6-dihydro-2H-pyran-4-yl)-3-fluoro-[1,1'-biphenyl]-4-carbonitrile], the IC50 was 25 to 100 nM.

As for `CC(C)Oc1ccc(CN2[C@@H]3CC[C@H]2[C@@H](N)C3)cc1-c1ccc(C#N)c(F)c1` (racemic) [Example 250, 5'-{[(1S,2S,4R)-2-amino-7-azabicyclo[2.2.1]heptan-7-yl]methyl}-3-fluoro-2'-(propan-2-yloxy)-[1,1'-biphenyl]-4-carbonitrile], the 50% inhibitory concentration (IC50) was 10 to 25 nM.

For `N#Cc1ccc(-c2cc(CN3[C@@H]4CC[C@H]3[C@@H](N)C4)ccc2N2CC3(CC3)C2)cc1F` (racemic) [Example 251, 5'-{[(1S,2S,4R)-2-amino-7-azabicyclo[2.2.1]heptan-7-yl]methyl}-2'-{5-azaspiro[2.3]hexan-5-yl}-3-fluoro-[1,1'-biphenyl]-4-carbonitrile], the IC50 is 25 to 100 nM.

As to `N#Cc1ccc(-c2cc(CN3[C@@H]4CC[C@H]3[C@@H](N)C4)ccc2-c2ccsn2)cc1F` (racemic) [Example 252, 5'-{[(1S,2S,4R)-2-amino-7-azabicyclo[2.2.1]heptan-7-yl]methyl}-3-fluoro-2'-(1,2-thiazol-3-yl)-[1,1'-biphenyl]-4-carbonitrile], the IC50 is 25 to 100 nM.

For `N#Cc1ccc(-c2cc(CN3[C@@H]4CC[C@H]3[C@@H](N)C4)ccc2-c2nccs2)cc1F` (racemic) [Example 253, 5'-{[(1S,2S,4R)-2-amino-7-azabicyclo[2.2.1]heptan-7-yl]methyl}-3-fluoro-2'-(1,3-thiazol-2-yl)-[1,1'-biphenyl]-4-carbonitrile], the IC50 was in the range of 25 to 100 nM.

In the case of `CN(CC1CC1)c1ccc(CN2[C@@H]3CC[C@H]2[C@@H](N)C3)cc1-c1ccc(C#N)c(F)c1` (racemic) [Example 254, 5'-{[(1S,2S,4R)-2-amino-7-azabicyclo[2.2.1]heptan-7-yl]methyl}-2'-[(cyclopropylmethyl)(methyl)amino]-3-fluoro-[1,1'-biphenyl]-4-carbonitrile], the IC50 lay in the range of 10 to 25 nM.

As for `N#Cc1ccc(-c2cc(CN3[C@@H]4CC[C@H]3[C@@H](N)C4)ccc2N2CCCCC2)cc1F` (racemic) [Example 255, 5'-{[(1S,2S,4R)-2-amino-7-azabicyclo[2.2.1]heptan-7-yl]methyl}-3-fluoro-2'-(piperidin-1-yl)-[1,1'-biphenyl]-4-carbonitrile], the IC50 was in the range of 10 to 25 nM.

Regarding `Cc1cccc(-c2ccc(CN3[C@@H]4CC[C@H]3[C@@H](N)C4)cc2-c2ccc(C#N)c(F)c2)n1` (racemic) [Example 256, 5'-{[(1S,2S,4R)-2-amino-7-azabicyclo[2.2.1]heptan-7-yl]methyl}-3-fluoro-2'-(6-methylpyridin-2-yl)-[1,1'-biphenyl]-4-carbonitrile], the 50% inhibitory concentration (IC50) fell in the range of 25 to 100 nM.

Take `Cc1cccnc1-c1ccc(CN2[C@@H]3CC[C@H]2[C@@H](N)C3)cc1-c1ccc(C#N)c(F)c1` (racemic) [Example 257, 5'-{[(1S,2S,4R)-2-amino-7-azabicyclo[2.2.1]heptan-7-yl]methyl}-3-fluoro-2'-(3-methylpyridin-2-yl)-[1,1'-biphenyl]-4-carbonitrile]: the IC50 fell in the range of 10 to 25 nM.

For `N#Cc1ccc(-c2cc(CN3[C@@H]4CC[C@H]3[C@@H](N)C4)ccc2-c2ccc(F)cn2)cc1F` (racemic) [Example 258, 5'-{[(1S,2S,4R)-2-amino-7-azabicyclo[2.2.1]heptan-7-yl]methyl}-3-fluoro-2'-(5-fluoropyridin-2-yl)-[1,1'-biphenyl]-4-carbonitrile], the half-maximal inhibitory concentration (IC50) lay within 25 to 100 nM.

With `CC1CCN(c2ccc(CN3[C@@H]4CC[C@H]3[C@@H](N)C4)cc2-c2ccc(C#N)c(F)c2)CC1` (racemic) [Example 259, 5'-{[(1S,2S,4R)-2-amino-7-azabicyclo[2.2.1]heptan-7-yl]methyl}-3-fluoro-2'-(4-methylpiperidin-1-yl)-[1,1'-biphenyl]-4-carbonitrile], the IC50 is 10 to 25 nM.

For the molecule `COC1CCN(c2ccc(CN3[C@@H]4CC[C@H]3[C@@H](N)C4)cc2-c2ccc(C#N)c(F)c2)CC1` (racemic) [Example 260, 5'-{[(1S,2S,4R)-2-amino-7-azabicyclo[2.2.1]heptan-7-yl]methyl}-3-fluoro-2'-(4-methoxypiperidin-1-yl)-[1,1'-biphenyl]-4-carbonitrile], the IC50 was 10 to 25 nM.

With `N#Cc1ccc(-c2cc(Cl)cc(CN3[C@@H]4CC[C@H]3[C@@H](N)C4)c2-c2cncs2)cc1F` (racemic) [Example 268, 3'-{[(1S,2S,4R)-2-amino-7-azabicyclo[2.2.1]heptan-7-yl]methyl}-5'-chloro-3-fluoro-2'-(1,3-thiazol-5-yl)-[1,1'-biphenyl]-4-carbonitrile], the IC50 lay within 10 to 25 nM.

Turning to `CN(CC1CC1)c1c(CN2[C@@H]3CC[C@H]2[C@@H](N)C3)cccc1-c1ccc(C#N)c(F)c1` (racemic) [Example 269, 3'-{[(1S,2S,4R)-2-amino-7-azabicyclo[2.2.1]heptan-7-yl]methyl}-2'-[(cyclopropylmethyl)(methyl)amino]-3-fluoro-[1,1'-biphenyl]-4-carbonitrile], the IC50 lay in the range of 100 to 1000 nM.

Turning to `N#Cc1ccc(-c2cccc(CN3[C@@H]4CC[C@H]3[C@@H](N)C4)c2N2CCCC2)cc1F` (racemic) [Example 270, 3'-{[(1S,2S,4R)-2-amino-7-azabicyclo[2.2.1]heptan-7-yl]methyl}-3-fluoro-2'-(pyrrolidin-1-yl)-[1,1'-biphenyl]-4-carbonitrile], the IC50 was 100 to 1000 nM.

Regarding `N#Cc1ccc(-c2cccc(CN3CCC[C@H]4NCC[C@H]43)c2-c2cncs2)cc1F` (racemic) [Example 279, 3'-{[(3aR,7aR)-otcahydro-1H-pyrrolo[3,2-b]pyridin-4-yl]methyl}-3-fluoro-2'-(1,3-thiazol-5-yl)-[1,1'-biphenyl]-4-carbonitrile], the half-inhibitory concentration (IC50) is 10 to 25 nM.

Turning to `N#Cc1ccc(-c2cccc(CN3[C@H]4CC[C@H](N)[C@@H]3CC4)c2Cl)cc1F` (racemic) [Example 282, 3'-{[(1S,2S,5S)-2-amino-8-azabicyclo[3.2.1]octan-8-yl]methyl}-2'-chloro-3-fluoro-[1,1'-biphenyl]-4-carbonitrile], the concentration for half-maximal inhibition (IC50) lay in the range of 100 to 1000 nM.

As for `N#Cc1ccc(-c2cccc(CN3[C@@H]4CC[C@H]3[C@@H](N)C4)c2C(F)F)cc1F` (racemic) [Example 301, 3'-{[(1S,2S,4R)-2-amino-7-azabicyclo[2.2.1]heptan-7-yl]methyl}-2'-(difluoromethyl)-3-fluoro-[1,1'-biphenyl]-4-carbonitrile], the IC50 lay in the range of 25 to 100 nM.

In the case of `N#Cc1ccc(-c2cccc(CN3[C@@H]4CC[C@H]3[C@@H](N)C4)c2C2=CCOC2)cc1F` (racemic) [Example 303, 3'-{[(1S,2S,4R)-2-amino-7-azabicyclo[2.2.1]heptan-7-yl]methyl}-2'-(2,5-dihydrofuran-3-yl)-3-fluoro-[1,1'-biphenyl]-4-carbonitrile], the IC50 was under 10 nM.
